Paper PMC8219695 (Nature Communications, 2021)
pEC50: −log10 of the molar value. “And” between values parts separate entries of the source, which are not always exact repeats. Identical values can stand only once.

What was measured:
hKOR = hKOR (Homo sapiens, UniProt P41145); experiment: CAMYEL BRET cAMP agonist assay at hKOR; assay type: cell-based; conditions: individual replicates, Supplementary Figure 8A source data
hMOR = target: T1, hMOR (Homo sapiens, UniProt P35372); experiment: CAMYEL BRET cAMP agonist assay at hMOR; assay type: cell-based; conditions: for cAMP %: hMOR, single replicates, source data Fig 6c, listed as C11-F-7OH (22)
T1 construct: expressed in transfected cells; plasmid a gift from Dr. Nevin Lambert
T1 sequence (P35372 whole entry): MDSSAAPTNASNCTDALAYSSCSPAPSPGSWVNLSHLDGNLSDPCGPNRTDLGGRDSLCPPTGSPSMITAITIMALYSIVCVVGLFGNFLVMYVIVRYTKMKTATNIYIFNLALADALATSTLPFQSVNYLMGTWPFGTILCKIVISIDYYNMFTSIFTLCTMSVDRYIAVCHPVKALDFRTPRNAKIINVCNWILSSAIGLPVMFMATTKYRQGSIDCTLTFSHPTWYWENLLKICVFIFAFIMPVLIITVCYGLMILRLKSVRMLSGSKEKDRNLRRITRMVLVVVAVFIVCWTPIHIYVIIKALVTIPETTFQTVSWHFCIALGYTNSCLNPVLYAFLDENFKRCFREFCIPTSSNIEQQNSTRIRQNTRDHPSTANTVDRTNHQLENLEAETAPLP

hDOR = hDOR (Homo sapiens, UniProt P41143); experiment: CAMYEL BRET cAMP agonist assay at hDOR; assay type: cell-based; conditions: for Agonist activity of 7OH analogs at hDOR: single replicate values, Supplementary Figure 7A
hDOR, sequence (P41143 whole entry): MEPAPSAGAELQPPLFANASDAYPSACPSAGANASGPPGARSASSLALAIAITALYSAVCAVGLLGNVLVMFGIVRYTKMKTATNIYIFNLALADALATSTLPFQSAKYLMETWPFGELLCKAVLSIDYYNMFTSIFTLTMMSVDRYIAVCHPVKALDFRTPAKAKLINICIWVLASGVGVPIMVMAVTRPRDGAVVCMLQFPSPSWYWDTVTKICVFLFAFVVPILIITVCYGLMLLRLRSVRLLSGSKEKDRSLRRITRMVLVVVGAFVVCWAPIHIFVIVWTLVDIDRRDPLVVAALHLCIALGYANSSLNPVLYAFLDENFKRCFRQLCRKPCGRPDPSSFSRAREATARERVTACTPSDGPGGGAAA

CD1 mice = experiment: Tail-flick antinociception in CD1 mice; assay type: in vivo, mouse; conditions: for Tail flick (%MPE), average / Tail flick latency in secs, Av / Tail flick (%MPE) / Tail flick latency: 5 mg/kg, sc; for Tail flick (%MPE), average / Tail flick latency in secs, Av: average of 11 animals; for Tail flick (%MPE) / Tail flick latency: individual animals

hKOR, sequence (P41145 whole entry): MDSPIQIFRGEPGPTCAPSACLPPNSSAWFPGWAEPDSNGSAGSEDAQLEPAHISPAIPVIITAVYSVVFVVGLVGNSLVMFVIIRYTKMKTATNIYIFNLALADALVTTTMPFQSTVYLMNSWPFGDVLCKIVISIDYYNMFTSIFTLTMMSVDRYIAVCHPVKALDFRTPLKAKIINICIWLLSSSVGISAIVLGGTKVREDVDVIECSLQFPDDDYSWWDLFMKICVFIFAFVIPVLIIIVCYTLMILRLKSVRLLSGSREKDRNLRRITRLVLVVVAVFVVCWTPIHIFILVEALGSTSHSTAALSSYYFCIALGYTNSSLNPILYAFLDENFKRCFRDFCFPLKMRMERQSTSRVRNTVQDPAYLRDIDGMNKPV

CC[C@@H]1CN2CC[C@@]3(O)C(=Nc4cc(F)cc(OC)c43)[C@@H]2C[C@@H]1/C(=C\OC)C(=O)OC [11-F-7OH (22), 11-Fluoro-7-hydroxymitragynine]
Agonist activity of 7OH analogs at hKOR (hKOR; Log [drug](M) -5): 12.7288 and 7.6957 and 5.691 and 5.203 and 10.1397 and 6.346 and 11.5584 and 16.2136 and 8.114 | Agonist activity of 7OH analogs at hKOR (hKOR; Log [drug](M) -6): 4.1678 and -6.234 and -2.623 and -0.4626 and 5.449 and 14.973 and 13.878 and 7.062 and 8.9598 | Agonist activity of 7OH analogs at hKOR (hKOR; Log [drug](M) -7): 15.7968 and 0.7988 and 22.403 and -2.445 and 4.302 and 10.7854 and 12.9808 and 8.955 and 17.6223 | Agonist activity of 7OH analogs at hKOR (hKOR; Log [drug](M) -8): 4.851 and -3.884 and -5.474 and 6.013 and -0.3123 and 2.012 and 9.524 and 10.5291 and 12.8743 | Agonist activity of 7OH analogs at hKOR (hKOR; Log [drug](M) -9): -6.272 and 9.969 and -14.9547 and 3.87 and -4.029 and 4.071 and 2.29 and -8.644 and 9.488 | Agonist activity of 7OH analogs at hKOR (hKOR; Log [drug](M) -10): -8.62 and -13.3054 and -5.371 and -6.566 and 5.6803 and 0.6674 and -0.4006 and -4.716 and 0.9825 | Agonist activity of 7OH analogs at hKOR (hKOR; Log [drug](M) -11): -18.0186 and -16.1556 and -9.7654 and -4.481 and 6.079 and -3.726 and -2.3334 and -2.856 and -4.795 | Agonist activity of 7OH analogs at hKOR (hKOR; Log [drug](M) -13): 2.027 and -5.796 and 3.769 and 2.62 and 6.896 and -9.516 and -3.456 and 3.959 and -0.5033 | pEC50 (hMOR): 7.53 | Emax (hMOR): 57% | cAMP % (hMOR; Log[drug] (M) -5): 51.264% and 45.9513% and 58.1795% and 79.6476% and 68.1188% and 65.3013% and 52.2398% and 64.2986% and 49.6622% | cAMP % (hMOR; Log[drug] (M) -6): 56.7369% and 57.602% and 54.9333% and 67.8605% and 67.5648% and 53.8544% and 46.4412% and 33.3921% and 44.9213% | cAMP % (hMOR; Log[drug] (M) -7): 48.1791% and 37.8893% and 39.1827% and 53.5374% and 50.3292% and 51.3541% and 36.9409% and 28.5036% and 44.2511% | cAMP % (hMOR; Log[drug] (M) -8): 15.2392% and 22.4344% and 23.7656% and 25.1778% and 17.6434% and 19.3494% and 5.0692% and 13.2412% and 14.3735% | cAMP % (hMOR; Log[drug] (M) -9): 4.113% and -7.3719% and 5.178% and 7.448% and -11.6959% and 4.5476% and -1.276% and -3.182% and 19.3939% | cAMP % (hMOR; Log[drug] (M) -10): 2.241% and -1.74% and -0.501% and 4.727% and -5.3691% and 0.6426% and 5.237% and 2.017% and 7.517% | cAMP % (hMOR; Log[drug] (M) -11): 9.244% and 1.716% and -4.082% and 4.12% and 6.65% and 8.68% and 7.357% and 0.1804% and -7.538% | cAMP % (hMOR; Log[drug] (M) -13, cAMP inhibition as % of DAMGO): 3.279% and -3.532% and 2.642% and -0.9485% and 1.819% and 3.865% and 2.979% and -0.05442% and 0.9166% | Agonist activity of 7OH analogs at hDOR (hDOR; Log[drug] (M) -5): 35.2154 and 37.8271 and 20.1668 and 20.0459 and 27.5701 and 32.2497 and 21.4666 and 22.179 and 20.5682 | Agonist activity of 7OH analogs at hDOR (hDOR; Log[drug] (M) -6): 34.2535 and 17.385 and 29.3707 and 32.2245 and 19.3851 and 24.4275 and 22.3041 and 14.4734 and 13.6453 | Agonist activity of 7OH analogs at hDOR (hDOR; Log[drug] (M) -7): 30.3483 and 21.8663 and 22.0325 and 12.2379 and 10.9328 and 13.3432 and 3.216 and 7.058 and 2.651 | Agonist activity of 7OH analogs at hDOR (hDOR; Log[drug] (M) -8): 2.89 and -16.6078 and 13.7181 and 1.455 and 8.915 and -8.089 and -4.58 and 2.715 and 18.3397 | Agonist activity of 7OH analogs at hDOR (hDOR; Log[drug] (M) -9): 8.34 and 5.8475 and -3.905 and -8.29 and 12.1949 and 6.438 and 2.013 and 5.417 | Agonist activity of 7OH analogs at hDOR (hDOR; Log[drug] (M) -10): 4.091 and -4.63 and 8.526 and 11.2871 and -1.147 and 9.891 and 2.3909 and 3.977 and 19.4184 | Agonist activity of 7OH analogs at hDOR (hDOR; Log[drug] (M) -11): -7.5527 and 10.3457 and 6.839 and 6.552 and 7.529 and 1.024 and 18.8483 and 4.15 and -0.7846 | Agonist activity of 7OH analogs at hDOR (hDOR; Log[drug] (M) -13): -0.5197 and 3.103 and 0.8755 and 5.994 and 5.535 and -9.529 and 9.805 and -0.2765 | pEC50 (hDOR; hDOR cAMP BRET, read-out: EC50): 6.82 | Emax (hDOR; read-out: Emax): 26% | duration of residual analgesic effect (CD1 mice; 5 mg/kg s.c., CD1 mice): at least 120 min | time of peak analgesic effect post injection (CD1 mice; 5 mg/kg s.c., CD1 mice): 15 min | partial analgesic efficacy (CD1 mice; 5 mg/kg s.c., CD1 mice, tail-flick): < 40 % MPE | Tail flick (%MPE), average (CD1 mice; 15 min): 38 %MPE | Tail flick latency in secs, Av (CD1 mice; 15 min): 5.1 s | Tail flick (%MPE) (CD1 mice; 15 min): 53 %MPE and 57 %MPE and 20 %MPE and 21 %MPE and 30 %MPE (2×) and 35 %MPE and 62 %MPE and 25 %MPE and 54 %MPE and 27 %MPE | Tail flick latency (CD1 mice; 15 min): 6.3 secs and 6.7 secs and 3.5 secs and 4.2 secs (2×) and 4.9 secs (2×) and 4.3 secs and 7.0 secs and 4.0 secs and 6.6 secs | Tail flick (%MPE), average (CD1 mice; 30 min): 32 %MPE | Tail flick latency in secs, Av (CD1 mice; 30 min): 4.7 s | Tail flick (%MPE) (CD1 mice; 30 min): 15 %MPE and 100 %MPE and 37 %MPE and 11 %MPE and 14 %MPE and 21 %MPE and 19 %MPE and 56 %MPE and 32 %MPE and 4 %MPE and 38 %MPE | Tail flick latency (CD1 mice; 30 min): 3.4 secs (2×) and 10.0 secs and 4.9 secs and 3.8 secs and 3.6 secs (2×) and 6.4 secs and 4.6 secs and 2.9 secs and 5.1 secs | Tail flick (%MPE), average (CD1 mice; 60 min): 13 %MPE | Tail flick latency in secs, Av (CD1 mice; 60 min): 3.3 s | Tail flick (%MPE) (CD1 mice; 60 min): 15 %MPE and 34 %MPE and 31 %MPE and -9 %MPE and -7.53 %MPE and 10 %MPE and 8 %MPE and 33 %MPE and 11 %MPE and 2.7 %MPE and 18 %MPE | Tail flick latency (CD1 mice; 60 min): 3.4 secs and 4.9 secs and 4.4 secs and 1.9 secs and 2.2 secs and 2.7 secs and 2.8 secs (2×) and 4.6 secs and 2.9 secs and 3.5 secs | Tail flick (%MPE), average (CD1 mice; 120 min): 15 %MPE | Tail flick latency in secs, Av (CD1 mice; 120 min): 3.4 s | Tail flick (%MPE) (CD1 mice; 120 min): 38 %MPE and 44 %MPE and 49 %MPE and -4 %MPE and -12 %MPE and 6 %MPE (2×) and 3.8 %MPE and -1.23 %MPE and 9 %MPE and 22 %MPE | Tail flick latency (CD1 mice; 120 min): 5.2 secs and 5.7 secs and 5.9 secs and 2.3 secs (2×) and 1.8 secs (2×) and 2.4 secs and 2.5 secs and 3.3 secs and 3.8 secs | Tail flick (%MPE) (CD1 mice; Fig 9b): 17.7 %MPE and 17.8 %MPE and 17.3 %MPE and 17.1 %MPE and 26.9 %MPE and 34.1 %MPE and 38.3 %MPE and 27.3 %MPE
